{"source": "patent US7728128B2", "about": "“Dibenzo[c,h][1,5]naphthyridines and their use as DNA probes” (Institut National de la Sante et de la Recherche Medicate …, priority 2006, dated 2010)", "system": "CT DNA", "experiment": "viscometry (hydrodynamic studies) of CT DNA solutions", "format": "binding, calf", "settings": "CT DNA 0.5 mM, drug 0.1 mM (0.2 dye/bp ratio)", "protocol": "Calf thymus (CT) DNA was dissolved in 50 mM Na-phosphate buffer, pH 7.2, to a concentration of 0.1 or 0.5 mM relative to base pairs as described in the legend for FIGS. 3A and B. DNA solution was allowed to run through a custom-made capillary viscometer and the time necessary for the meniscus to pass a certain distance was measured using a stopwatch. All experiments were performed at 23° C. Viscosity values were calculated using the equation: η=(t−t0)/t0, where t is the flow time of DNA solution (with or without dye), and t0 is the flow time of Na-phosphate buffer alone. For each control and DNA solutions with dyes flow times were measured three to five times. Viscosity of DNA solutions with dyes were calculated as (η/η0)^1/3, where η0 and η are relative viscosities of the CT DNA solution in the absence and presence of the dye, respectively. This calculation stems from the relationship which exists between the relative solution viscosity and the relative contour length (L/L0): L/L0=(η/η0)^1/3, where L stands for the apparent molecular length (Muller, W. et al., 1968, J Mol Biol, 35, 251-290). Average viscosity values and standard error of the mean (SEM) were determined using (η/η0)^1/3 values calculated for each time flow measurement.\nDNA-binding dyes interact with dsDNA by intercalation or external binding, or both. External binding most often involves the minor groove of DNA (Kopka et al.; Pjura, P. E., et al., 1987, J Mol Biol, 197, 257-271). Intercalation occurs when a ligand inserts itself between the opposite strands of DNA. In order to determine the mechanism of compound I binding to dsDNA, the inventors performed hydrodynamic studies. This approach is based on the observation that intercalating molecules increase the length of DNA fragments and, consequently, enhance the viscosity of DNA solutions (Muller W. et al.; Suh, D. et al., 1995, Bioorg Med Chem, 3, 723-728). For this experiment, compound I has been compared to the known DNA intercalator ethidium bromide and to the external minor groove binder Hoechst 33258. CT DNA at 0.5 mM was mixed with drugs at 0.1 mM concentration (0.2 dye/bp ratio) and used for viscometry measurements.\nThe inventors then wondered whether the increase in viscosity is equally matched by the increase in fluorescence intensity. To answer this question, CT DNA at 0.1 mM (bp) was mixed with increasing amounts of compound I and viscosity measurements were performed as above. The viscosity of the DNA/compound I solutions increased up to a dye/bp ratio 1 (FIG. 3B). To correlate the increase in viscosity with fluorescence, the inventors measured fluorescence intensities at 484 nm of the compound I/DNA solutions used for the viscosity measurements.", "data": [{"compound": "CN1CCN(c2ccc3[nH]c(-c4ccc5[nH]c(-c6ccc(O)cc6)nc5c4)nc3c2)CC1", "note": "[Hoechst 33258, reference compound]", "values": [{"measurement": "effect on viscosity of DNA solution", "result": "decrease slightly"}]}]}
